Results on eight compounds are retold here after patent publication US8293705B2, “HCV protease inhibitors and uses thereof” (Avila Therapeutics, Inc., priority 2007, dated 2012).

As usually defined, the IC50 is the point on the concentration scale where inhibition reaches its midpoint. Usually IC90 stands for the point of the concentration-response curve where the effect stands at 90%.

The target of assay [1] is T1, HCV NS3/4A 1b protease wild type (Hepatitis C virus genotype 1b, UniProt Q9WMX2).
T1 construct: 10× stocks of NS3/4A protease enzyme from Bioenza (Mountain View, Calif.); purchased Bioenza (Mountain View, Calif.)
The experiment in a line: HCV protease FRET assay (IC50_APP), Example 16. It is filed as biochemical. As for the experimental part:
(§1) The following protocol was used to generate “apparent” IC50 (IC50 APP) values as depicted in Table 6, below. […] 5 μL of each enzyme were added to Corning (#3575) 384-well, black, microtiter plates (Corning, N.Y.) after spotting a 0.5 μL volume of 50% DMSO and serially diluted compounds prepared in 50% DMSO. Protease reactions were immediately started after enzyme addition with the addition of 45 μL of the FRET substrate and monitored for 60-90 minutes at λex485/λem520 in a Synergy^4 plate reader from BioTek (Winooski, Vt.). At the conclusion of each assay, progress curves from each well were examined for linear reaction kinetics and fit statistics (R^2, 95% confidence intervals, absolute sum of squares).
(§2) The compound numbers correspond to the compound numbers in Table 3. […] ;

Assay [2] addresses T2, HCV NS3/4A 1b protease D168A (Hepatitis C virus genotype 1b, UniProt Q9WMX2, D1194A).
T2 construct: 10× stocks of NS3/4A protease enzyme from Bioenza (Mountain View, Calif.); purchased Bioenza (Mountain View, Calif.)
The experiment in a line: HCV protease FRET assay (IC50_APP), Example 16. It is filed as biochemical. As for the experimental part:
as §1, §2

In assay [3] the target is T3, HCV NS3/4A 1b protease A156T (Hepatitis C virus genotype 1b, UniProt Q9WMX2, A1182T).
T3 construct: 10× stocks of NS3/4A protease enzyme from Bioenza (Mountain View, Calif.); purchased Bioenza (Mountain View, Calif.)
The experiment in a line: HCV protease FRET assay (IC50_APP), Example 16. The class given is biochemical. On the procedure: as §1, §2

In another assay the target is T4, HCV NS3/4A wild type (Hepatitis C virus genotype 1b, UniProt Q9WMX2).
T4 construct: HCV NS3/4A wild type (wt) was incubated for 1 hr at a 10× fold access of test compound to protein; purchased Bioenza, Calif
The experiment in a line: Mass spectrometric analysis of covalent modification (MALDI-TOF). It is filed as binding. Particulars: 10× excess of test compound to protein; MALDI-TOF. As for the experimental part: Mass spectrometric analysis of HCV wild type or HCV variant C159S in the presence of test compound is performed. 100 pmols of HCV wild type (Bioenza, Calif.) is incubated with test compound for 1 hr and 3 hrs at 10-fold access of test compound to protein. 1 ul aliquots of the samples (total volume of 4.24 ul) are diluted with 10 ul of 0.1% TFA prior to micro C4 ZipTipping directly onto the MALDI target using Sinapinic acid as the desorption matrix (10 mg/mL in 0.1% TFA:Acetonitrile 50:50). Analyses are performed on a Shimadzu Biotech Axima TOF2 (Shimadzu Instruments) matrix-assisted-laser desorption/ionization Time-of-Flight (MALDI-TOF) mass spectrometer. The same procedure is carried out on 100 pmols of HCV C159S mutant of HCV protease for 3 hrs at 10-fold excess of test compound to protein.
As depicted in FIGS. 1 and 2, mass spectrometric analysis of HCV wild type in the presence of test compounds I-1 and I-25 was performed using the following protocol: HCV NS3/4A wild type (wt) was incubated for 1 hr at a 10× fold access of test compound to protein. 2 ul aliquots of the samples were diluted with 10 ul of 0.1% TFA prior to micro C4 ZipTipping directly onto the MALDI target using Sinapinic acid as the desorption matrix (10 mg/ml in 0.1% TFA:Acetonitrile 50:50). For intact protein mass measurement the instrument was set in linear mode using a pulsed extraction setting of 24,500 and apomyoglobin as the standard to calibrate the instrument.

In assay [4] the test system is HCV RNA replicon in cell line ET (luc-ubi-neo/ET), human Huh7 hepatoma. The experiment in a line: HCV RNA replicon assay, Example 14 Method A. It is filed as cell-based. The note with it: Hepatitis C virus, Huh-7, assay of Example 14, 72 hr; for IC50: read-out: Inhibition, Replicon (IC50); for IC90: read-out: Inhibition, Replicon, IC90 value. As for the experimental part: The compounds were assayed to evaluate the antiviral activity and cytotoxicity of compounds in vitro using HCV RNA replicons. This assay used the cell line ET (luc-ubi-neo/ET), which is a human Huh7 hepatoma cell line that contains an HCV RNA replicon with a stable luciferase (Luc) reporter and three cell culture-adaptive mutations. […]
The ET cell line was grown in Dulbecco's modified essential media (DMEM), 10% fetal bovine serum (FBS), 1% penicillin-streptomycin (pen-strep), 1% glutamine, 250 μg/mL G418 in a 5% CO2 incubator at 37° C. All cell culture reagents were obtained from Mediatech (Manassas, Va.). Cells were trypsinized (1% trypsin:EDTA) and plated out at 5×10^3 cells/well in white 96-well assay plates (Costar) dedicated to cell number (cytotoxicity) or antiviral activity assessments. Drugs were added at six 3-fold concentrations each and the assay was run in DMEM, 5% FBS, 1% pen-strep, 1% glutamine. Human interferon alpha-2b (PBL Biolabs, New Brunswick, N.J.) was included in each run as a positive control compound. Cells were processed 72 hr post drug addition when the cells are still subconfluent. Antiviral activity was measured by analyzing replicon-derived luciferase activity using the Steady-Glo Luciferase Assay System (Promega, Madison, Wis.) according to manufacturer's instruction. The number of cells in each well was determined by CytoTox-1 reagent (Promega). Compound profile was derived by calculating applicable EC50 (effective concentration inhibiting virus replication by 50%), EC90 (effective concentration inhibiting virus replication by 90%), IC50 (concentration decreasing cell viability by 50%) and SI50 (selective index: […]) values.
For orientation: In antiviral work, replicon cells carry a viral genome segment that copies itself.

The target in assay [5] is T5, HCV NS3/4A 1b protease R155K (Hepatitis C virus genotype 1b, UniProt Q9WMX2, R1181K).
T5 construct: 10× stocks of NS3/4A protease enzyme from Bioenza (Mountain View, Calif.); purchased Bioenza (Mountain View, Calif.)
The experiment in a line: HCV protease FRET assay (IC50_APP), Example 16. It is filed as biochemical. Particulars: reaction started immediately after enzyme addition, read-out: Inhibition (apparent IC50, IC50_APP), HCV R155K. On the procedure: as §1, §2

`C=C[C@@H]1C[C@]1(NC(=O)[C@@H]1C[C@@H](OC(=O)N2Cc3cccc(F)c3C2)CN1C(=O)[C@H](CNS(=O)(=O)C=C)NC(=O)OC(C)(C)C)C(=O)NS(=O)(=O)C1CC1` [Compound I-2, (3R,5S)-1-((S)-2-(tert-butoxycarbonylamino)-3-(vinylsulfonamido)propanoyl)-5-((1R,2S)-1-(cyclopropylsulfonylcarbamoyl)-2-vinylcyclopropylcarbamoyl)pyrrolidin-3-yl 4-fluoroisoindoline-2-carboxylate]: the IC50 in assay [1] was under 10 nM; in assay [2], under 10 nM; in assay [3], under 10 nM; in assay [4], 10 to 100 nM. The “Covalent modification of HCV NS3/4A wild type” value (shortened to “Covalent modification”) on HCV NS3/4A wild type was “measurable covalent modification”. In addition, the IC90 in assay [4] is 100 to 1000 nM.

In the case of `C=CC(=O)NCC[C@H](NC(=O)OC(C)(C)C)C(=O)N1C[C@H](OC(=O)N2Cc3cccc(F)c3C2)C[C@H]1C(=O)N[C@]1(C(=O)NS(=O)(=O)C2CC2)C[C@H]1C=C` [Compound I-5, (3R,5S)-1-((S)-4-acrylamido-2-(tert-butoxycarbonylamino)butanoyl)-5-((1R,2S)-1-(cyclopropylsulfonylcarbamoyl)-2-vinylcyclopropylcarbamoyl)pyrrolidin-3-yl 4-fluoroisoindoline-2-carboxylate], the IC50 in assay [1] is under 10 nM; in assay [2], 100 to 1000 nM; in assay [3], 10 to 100 nM; in assay [4], 10 to 100 nM. The “Covalent modification” value at HCV NS3/4A wild type is reported as “measurable covalent modification”. In assay [4], the IC90 lay within 100 to 1000 nM.

As to `C=CC(=O)N(C)CC[C@H](NC(=O)OC(C)(C)C)C(=O)N1C[C@H](OC(=O)N2Cc3cccc(F)c3C2)C[C@H]1C(=O)N[C@]1(C(=O)NS(=O)(=O)C2CC2)C[C@H]1C=C` [Compound I-13, (3R,5S)-1-((S)-2-(tert-butoxycarbonylamino)-4-(N-methylacrylamido)butanoyl)-5-((1R,2S)-1-(cyclopropylsulfonylcarbamoyl)-2-vinylcyclopropylcarbamoyl)pyrrolidin-3-yl 4-fluoroisoindoline-2-carboxylate], the IC50 in assay [1] was under 10 nM; in assay [2], 100 to 1000 nM; in assay [3], under 10 nM; in assay [4], 10 to 100 nM. For the same compound, the “Covalent modification” value at HCV NS3/4A wild type is on record as “measurable covalent modification”. Moreover, the IC90 in assay [4] was 100 to 1000 nM.

Consider `C=CC(=O)N(C)C[C@H](NC(=O)OC1CCCC1)C(=O)N1C[C@H](OC(=O)N2Cc3cccc(F)c3C2)C[C@H]1C(=O)N[C@]1(C(=O)NS(=O)(=O)C2CC2)C[C@H]1C=C` [Compound I-20, (3R,5S)-1-((S)-2-(cyclopentyloxycarbonylamino)-3-(N-methylacrylamido)propanoyl)-5-((1R,2S)-1-(cyclopropylsulfonylcarbamoyl)-2-vinylcyclopropylcarbamoyl)pyrrolidin-3-yl 4-fluoroisoindoline-2-carboxylate], for which the IC50 in assay [1] is under 10 nM; in assay [2], 10 to 100 nM; in assay [3] it was under 10 nM; in assay [4], 10 to 100 nM. In addition, the “Covalent modification” value at HCV NS3/4A wild type is “measurable covalent modification”. Besides, the IC90 in assay [4] lay within 100 to 1000 nM.

`C=C[C@@H]1C[C@]1(NC(=O)[C@@H]1C[C@@H](OC(=O)N2Cc3cccc(F)c3C2)CN1C(=O)[C@@H](NC(=O)OC(C)(C)C)[C@@H](C)OC(=O)/C=C/C)C(=O)NS(=O)(=O)C1CC1` [Compound I-22, (3R,5S)-1-((2S,3R)-3-((E)-but-2-enoyloxy)-2-(tert-butoxycarbonylamino)butanoyl)-5-((1R,2S)-1-(cyclopropylsulfonylcarbamoyl)-2-vinylcyclopropylcarbamoyl)pyrrolidin-3-yl-4-fluoroisoindoline-2-carboxylate]: the IC50 in assay [1] is under 10 nM; in assay [2] it was 100 to 1000 nM; in assay [5], 10 to 100 nM; in assay [3], 10 to 100 nM; in assay [4], 10 to 100 nM. Besides, the “Covalent modification” value on HCV NS3/4A wild type was “measurable covalent modification”. Further, the IC90 in assay [4] fell in the range of 10 to 100 nM.

As for `C=C[C@@H]1C[C@]1(NC(=O)[C@@H]1C[C@@H](OC(=O)N2Cc3cccc(F)c3C2)CN1C(=O)[C@H](COC(=O)C(=C)NC(=O)OC(C)(C)C)NC(=O)OC(C)(C)C)C(=O)NS(=O)(=O)C1CC1` [Compound I-23, (3R,5S)-1-((S)-2-(tert-butoxycarbonylamino)-3-(2-(tert-butoxycarbonylamino)acryloyloxy)propanoyl)-5-((1R,2S)-1-(cyclopropylsulfonylcarbamoyl)-2-vinylcyclopropylcarbamoyl)pyrrolidin-3-yl 4-fluoroisoindoline-2-carboxylate], the IC50 in assay [1] is under 10 nM; in assay [2], under 10 nM; in assay [3], under 10 nM; in assay [4], 10 to 100 nM. Also, the “Covalent modification” value on HCV NS3/4A wild type was “measurable covalent modification”. For the same compound, the IC90 in assay [4] is 100 to 1000 nM.

Turning to `C=C[C@@H]1C[C@]1(NC(=O)[C@@H]1CC(OC(=O)N2Cc3cccc(F)c3C2)CN1C(=O)[C@H](CCC(=O)/C=C/C)NC(=O)OC(C)(C)C)C(=O)NS(=O)(=O)C1CC1` (some centres unmarked) [Compound I-26], the IC50 in assay [1], in assay [2] and in assay [3] was under 10 nM throughout. Also, the “Covalent modification” value on HCV NS3/4A wild type was “measurable covalent modification”.

Take `C=C[C@@H]1C[C@]1(NC(=O)[C@@H]1CC(OC(=O)N2Cc3cccc(F)c3C2)CN1C(=O)[C@H](CCC(=O)C(=C)C)NC(=O)OC(C)(C)C)C(=O)NS(=O)(=O)C1CC1` (some centres unmarked) [Compound I-27]: the IC50 in assay [1] is under 10 nM; in assay [2] it was under 10 nM; in assay [3], under 10 nM; in assay [4], 10 to 100 nM. Moreover, on HCV NS3/4A wild type, the “Covalent modification” value was “measurable covalent modification”. The IC90 in assay [4] fell in the range of 100 to 1000 nM.
